# According to article PMC3127977, “No relevant cardiac, pharmacokinetic or safety interactions between roflumilast and inhaled formoterol in healthy subjects: an open-label, randomised, actively controlled study” (BMC Clinical Pharmacology, 2011):
# Tests used:
# [1] = cited from earlier work
# [2] = Serum glucose concentration on profiling days; details: Regimen A, Day 11
# Source text: (§1) During the main profiling days, blood was sampled at each ZCG time point for the determination of serum glucose and potassium concentrations.
# [3] = Serum potassium concentration on profiling days; details: Regimen A, Day 11
# Source text: as §1
# [4] = test system: healthy subjects; parameters: method as in earlier work; details: cited from earlier work
# [5] = Steady-state plasma pharmacokinetics (HPLC-MS/MS) in healthy men; oral roflumilast 500 μg once daily, inhaled formoterol 24 μg twice daily; details: for AUC / Cmax: male, human, plasma, oral; for AUC: AUCτ; for AUC / Cmax / C trough / CL/F: steady state, geometric mean (68% range)
# Method: For Regimen A, subjects received 500 μg oral roflumilast once daily (daily dose: one tablet of roflumilast 500 μg) from the morning of Day 2 to the morning of Day 18. […] For Regimen B, subjects received 24 μg formoterol for oral inhalation delivered by a DPI device (Foradil® P) twice daily, once in the morning and once in the evening from the morning of Day 2 to the evening of Day 18.
# Pre-dose blood samples for determination of trough levels were taken on Days 9 and 10 for Regimen A (morning only), and on Days 6 and 7 (morning and evening) for Regimen B. Blood samples (4.5 mL) were collected in heparinised tubes and plasma was obtained by centrifugation at 1550 g for 15 minutes. Plasma samples were stored at -20°C or below for roflumilast, and at -70°C for formoterol. Plasma concentrations of roflumilast and roflumilast N-oxide were determined using high-performance liquid chromatography coupled with tandem mass spectrometry (HPLC-MS/MS). […] Roflumilast and roflumilast N-oxide standard curves were valid up to 20 ng/mL and 40 ng/mL, respectively. Determination of roflumilast and roflumilast N-oxide was performed at Altana Pharma AG, Konstanz, Germany (Nycomed GmbH). Plasma concentrations of formoterol were determined using HPLC-MS/MS. The LLOQ in plasma was 0.4 pg/mL using a sample volume of 1.0 mL. […] Determination of formoterol was performed at pharm-analyt Labor GmbH, Baden, Austria, under the supervision of Altana Pharma AG(Nycomed GmbH).
# For roflumilast, roflumilast N-oxide and formoterol, the maximum plasma concentration (Cmax) was derived directly from the plasma concentrations. The AUC from time zero to the time of the last quantifiable concentration, which corresponded to the dosing interval of each analyte (AUC0-τ), was estimated using the linear trapezoidal method. Apparent clearance at steady state (CL/F; calculated by dose/AUCτ) was reported for roflumilast only. […] The calculation of tPDE4i was based on the equation described in Lahu et al..
# [6] = 500 μg, Regimen A Day 11 (roflumilast alone)
# [7] = Regimen A Day 18 (roflumilast plus formoterol)
# [8] = Regimen B Day 18 (formoterol plus roflumilast)
# [9] = Regimen A Day 11 (roflumilast alone)
structure (smiles),measurement,setting,value
"O=C(Nc1c(Cl)cncc1Cl)c1ccc(OC(F)F)c(OCC2CC2)c1 [Roflumilast, 3-cyclopropylmethoxy-N-(3,5-dichloropyridin-4-yl)-4-(difluoromethoxy)benzamide]",median effective plasma half-life,[1]; repeated dose,17 h
same,mean bioavailability,"[1]; single oral 500 μg dose, healthy individuals",79%
same,dose dependence of pharmacokinetics,[1]; within the 250-1000 μg dose range,dose-proportional
same,median pre-dose serum glucose,[2],4.75 mmol/L
same,median pre-dose serum potassium level,[3],4.16 mmol/L
same,effect on cardiac repolarisation (QT/QTc interval),[4],no significant effect
same,steady-state AUC and Cmax values lower,[5]; Regimen B Day 18 (co-administered with formoterol) compared with Regimen A Day 11 or Day 18,10-15%
same,changes in peak concentration and exposure,[5]; concomitant inhaled formoterol compared with roflumilast alone,less than 1%
same,changes in steady-state pharmacokinetics when the other drug was added,"[5]; formoterol added to roflumilast, or roflumilast added to formoterol",no relevant changes
same,AUC,[5]; [6],35.8 ng·h/mL
same,Cmax,[5]; [6],6.89 ng/mL
same,AUC,[5]; [7],36.9 ng·h/mL
same,AUC,[5]; [8],31.8 ng·h/mL
same,Cmax,[5]; [7],6.43 ng/mL
same,Cmax,[5]; [8],5.92 ng/mL
same,C trough,[5]; [9],0.53 (0.33-0.85) μg/L
same,CL/F,[5]; [9],13.9 (10.8-17.9) L/h
same,C trough,[5]; [7],0.50 (0.29-0.86) μg/L
same,CL/F,[5]; [7],13.5 (10.3-17.7) L/h
same,C trough,[5]; [8],0.37 (0.18-0.77) μg/L
same,CL/F,[5]; [8],15.7 (10.4-23.5) L/h
